The source made the active and inactive calls. The calls are words filed in the database; no cut-off is given here.
How the values were obtained:
Photorhabdus luminescens [1] = test: Antibacterial activity against Photorhabdus luminescens at 10 mg/ml after 24 hrs by disc diffusion method; format: functional, organism-based
Aspergillus = test: Antifungal activity against Aspergillus at 10 mg/ml after 72 hrs by disc diffusion method; format: functional, organism-based
Salmonella paratyphi [2] = test: Antibacterial activity against Salmonella paratyphi at 6.25 to 200 ug/ml after 24 hrs by microwell dilution method; format: functional, organism-based; conditions: Salmonella enterica subsp. enterica serovar Paratyphi A
Escherichia coli [3] = test: Antibacterial activity against Escherichia coli at 6.25 to 200 ug/ml after 24 hrs by microwell dilution method; format: functional, organism-based
Pichia membranifaciens = test: Antifungal activity against Pichia membranifaciens at 10 mg/ml after 48 hrs by disc diffusion method; format: functional, organism-based
Kluyveromyces marxianus = test: Antifungal activity against Kluyveromyces marxianus at 10 mg/ml after 48 hrs by disc diffusion method; format: functional, organism-based
Staphylococcus cohnii [4] = test: Antibacterial activity against Staphylococcus cohnii at 10 mg/ml after 24 hrs by disc diffusion method; format: functional
Staphylococcus cohnii [5] = test: Antibacterial activity against Staphylococcus cohnii at 6.25 to 200 ug/ml after 24 hrs by microwell dilution assay; format: functional, organism-based
Escherichia coli [6] = test: Antibacterial activity against Escherichia coli at 10 mg/ml after 24 hrs by disc diffusion method; format: functional, organism-based
Hepacivirus hominis = test: Inhibition of HCV N-terminal His-tagged NS5B RNA dependent RNA polymerase expressed in Escherichia coli DH5alpha using poly rA/U12 as primer at 200 uM after 60 mins by liquid scintillation counting
Micrococcus luteus [7] = test: Antibacterial activity against Micrococcus luteus at 10 mg/ml after 24 hrs by disc diffusion method; format: functional, organism-based
Pseudomonas aeruginosa [8] = test: Antibacterial activity against Pseudomonas aeruginosa at 10 mg/ml after 24 hrs by disc diffusion method; format: functional, organism-based
Proteus vulgaris [9] = test: Antibacterial activity against Proteus vulgaris at 6.25 to 200 ug/ml after 24 hrs by microwell dilution method; format: functional, organism-based
[10] = test system: Acinetobacter radioresistens; test: Antibacterial activity against Acinetobacter radioresistens at 6.25 to 200 ug/ml after 24 hrs by microwell dilution method; format: functional, organism-based
Micrococcus lylae [11] = test: Antibacterial activity against Micrococcus lylae at 10 mg/ml after 24 hrs by disc diffusion method; format: functional, organism-based
[12] = test system: Schwanniomyces occidentalis; test: Antifungal activity against Schwanniomyces occidentalis at 10 mg/ml after 48 hrs by disc diffusion method; format: functional, organism-based
Staphylococcus aureus [13] = test: Antibacterial activity against Staphylococcus aureus at 10 mg/ml after 24 hrs by disc diffusion method; format: functional
Klebsiella aerogenes [14] = test: Antibacterial activity against Enterobacter aerogenes at 10 mg/ml after 24 hrs by disc diffusion method; format: functional, organism-based
Candida albicans = test: Antifungal activity against Candida albicans at 10 mg/ml after 48 hrs by disc diffusion method; format: functional, organism-based
Photorhabdus luminescens [15] = test: Antibacterial activity against Photorhabdus luminescens at 6.25 to 200 ug/ml after 24 hrs by microwell dilution method; format: functional, organism-based
Nakaseomyces glabratus = test: Antifungal activity against Candida glabrata at 10 mg/ml after 48 hrs by disc diffusion method; format: functional, organism-based
Pseudomonas aeruginosa [16] = test: Antibacterial activity against Pseudomonas aeruginosa at 6.25 to 200 ug/ml after 24 hrs by microwell dilution method; format: functional, organism-based
Staphylococcus aureus [17] = test: Antibacterial activity against Staphylococcus aureus at 6.25 to 200 ug/ml after 24 hrs by microwell dilution assay; format: functional, organism-based
[18] = test system: Acinetobacter radioresistens; test: Antibacterial activity against Acinetobacter radioresistens at 10 mg/ml after 24 hrs by disc diffusion method; format: functional, organism-based
Micrococcus lylae [19] = test: Antibacterial activity against Micrococcus lylae at 6.25 to 200 ug/ml after 24 hrs by microwell dilution method; format: functional, organism-based
Salmonella paratyphi [20] = test: Antibacterial activity against Salmonella paratyphi at 10 mg/ml after 24 hrs by disc diffusion method; format: functional, organism-based; conditions: Salmonella enterica subsp. enterica serovar Paratyphi A
Candida parapsilosis = test: Antifungal activity against Candida parapsilosis at 10 mg/ml after 48 hrs by disc diffusion method; format: functional, organism-based
Micrococcus luteus [21] = test: Antibacterial activity against Micrococcus luteus at 6.25 to 200 ug/ml after 24 hrs by microwell dilution method; format: functional, organism-based
Klebsiella aerogenes [22] = test: Antibacterial activity against Enterobacter aerogenes at 6.25 to 200 ug/ml after 24 hrs by microwell dilution method; format: functional, organism-based
Candida tropicalis = test: Antifungal activity against Candida tropicalis at 10 mg/ml after 48 hrs by disc diffusion method; format: functional, organism-based
Proteus vulgaris [23] = test: Antibacterial activity against Proteus vulgaris at 10 mg/ml after 24 hrs by disc diffusion method; format: functional, organism-based

CC(C(=O)N/N=C/c1cccc(F)c1)c1ccc(-c2ccccc2)c(F)c1 (centres undefined)
Activity (Photorhabdus luminescens [1]): inactive | Activity (Aspergillus): inactive | Activity (Salmonella paratyphi [2]): inactive | Activity (Escherichia coli [3]): inactive | Activity (Pichia membranifaciens): inactive | Activity (Kluyveromyces marxianus): inactive | Activity (Staphylococcus cohnii [4]): inactive | Activity (Staphylococcus cohnii [5]): inactive | Activity (Escherichia coli [6]): inactive | inhibition (Hepacivirus hominis): 8% | Activity (Micrococcus luteus [7]): inactive | Activity (Pseudomonas aeruginosa [8]): inactive | Activity (Proteus vulgaris [9]): inactive | Activity [10]: inactive | Activity (Micrococcus lylae [11]): inactive | Activity [12]: inactive | Activity (Staphylococcus aureus [13]): inactive | Activity (Klebsiella aerogenes [14]): inactive | Activity (Candida albicans): inactive | Activity (Photorhabdus luminescens [15]): inactive | Activity (Nakaseomyces glabratus): inactive | Activity (Pseudomonas aeruginosa [16]): inactive | Activity (Staphylococcus aureus [17]): inactive | Activity [18]: inactive | Activity (Micrococcus lylae [19]): inactive | Activity (Salmonella paratyphi [20]): inactive | Activity (Candida parapsilosis): inactive | Activity (Micrococcus luteus [21]): inactive | Activity (Klebsiella aerogenes [22]): inactive | Activity (Candida tropicalis): inactive | Activity (Proteus vulgaris [23]): inactive

CC(C(=O)N/N=C1\SCC(=O)N1C)c1ccc(-c2ccccc2)c(F)c1 (centres undefined)
Activity (Photorhabdus luminescens [1]): inactive | Activity (Aspergillus): inactive | Activity (Salmonella paratyphi [2]): inactive | Activity (Escherichia coli [3]): inactive | Activity (Pichia membranifaciens): inactive | Activity (Kluyveromyces marxianus): inactive | Activity (Staphylococcus cohnii [4]): inactive | Activity (Staphylococcus cohnii [5]): inactive | Activity (Escherichia coli [6]): inactive | inhibition (Hepacivirus hominis): 8% | Activity (Micrococcus luteus [7]): inactive | Activity (Pseudomonas aeruginosa [8]): inactive | Activity (Proteus vulgaris [9]): inactive | Activity [10]: inactive | Activity (Micrococcus lylae [11]): inactive | Activity [12]: inactive | Activity (Staphylococcus aureus [13]): inactive | Activity (Klebsiella aerogenes [14]): inactive | Activity (Candida albicans): inactive | Activity (Photorhabdus luminescens [15]): inactive | Activity (Nakaseomyces glabratus): inactive | Activity (Pseudomonas aeruginosa [16]): inactive | Activity (Staphylococcus aureus [17]): inactive | Activity [18]: inactive | Activity (Micrococcus lylae [19]): inactive | Activity (Salmonella paratyphi [20]): inactive | Activity (Candida parapsilosis): inactive | Activity (Micrococcus luteus [21]): inactive | Activity (Klebsiella aerogenes [22]): inactive | Activity (Candida tropicalis): inactive | Activity (Proteus vulgaris [23]): inactive

CCCNC(=S)NNC(=O)C(C)c1ccc(-c2ccccc2)c(F)c1 (centres undefined)
Activity (Photorhabdus luminescens [1]): inactive | Activity (Aspergillus): inactive | Activity (Salmonella paratyphi [2]): inactive | Activity (Escherichia coli [3]): inactive | Activity (Pichia membranifaciens): inactive | Activity (Kluyveromyces marxianus): inactive | Activity (Staphylococcus cohnii [4]): inactive | Activity (Staphylococcus cohnii [5]): inactive | Activity (Escherichia coli [6]): inactive | inhibition (Hepacivirus hominis): 8% | Activity (Micrococcus luteus [7]): inactive | Activity (Pseudomonas aeruginosa [8]): inactive | Activity (Proteus vulgaris [9]): inactive | Activity [10]: inactive | Activity (Micrococcus lylae [11]): inactive | Activity [12]: inactive | Activity (Staphylococcus aureus [13]): inactive | Activity (Klebsiella aerogenes [14]): inactive | Activity (Candida albicans): inactive | Activity (Photorhabdus luminescens [15]): inactive | Activity (Nakaseomyces glabratus): inactive | Activity (Pseudomonas aeruginosa [16]): inactive | Activity (Staphylococcus aureus [17]): inactive | Activity [18]: inactive | Activity (Micrococcus lylae [19]): inactive | Activity (Salmonella paratyphi [20]): inactive | Activity (Candida parapsilosis): inactive | Activity (Micrococcus luteus [21]): inactive | Activity (Klebsiella aerogenes [22]): inactive | Activity (Candida tropicalis): inactive | Activity (Proteus vulgaris [23]): inactive

CC(C(=O)NN1C(=O)CSC1c1ccccc1F)c1ccc(-c2ccccc2)c(F)c1 (centres undefined)
Activity (Photorhabdus luminescens [1]): inactive | Activity (Aspergillus): inactive | Activity (Salmonella paratyphi [2]): inactive | Activity (Escherichia coli [3]): inactive | Activity (Pichia membranifaciens): inactive | Activity (Kluyveromyces marxianus): inactive | Activity (Staphylococcus cohnii [4]): inactive | Activity (Staphylococcus cohnii [5]): inactive | Activity (Escherichia coli [6]): inactive | inhibition (Hepacivirus hominis): 8% | Activity (Micrococcus luteus [7]): inactive | Activity (Pseudomonas aeruginosa [8]): inactive | Activity (Proteus vulgaris [9]): inactive | Activity [10]: inactive | Activity (Micrococcus lylae [11]): inactive | Activity [12]: inactive | Activity (Staphylococcus aureus [13]): inactive | Activity (Klebsiella aerogenes [14]): inactive | Activity (Candida albicans): inactive | Activity (Photorhabdus luminescens [15]): inactive | Activity (Nakaseomyces glabratus): inactive | Activity (Pseudomonas aeruginosa [16]): inactive | Activity (Staphylococcus aureus [17]): inactive | Activity [18]: inactive | Activity (Micrococcus lylae [19]): inactive | Activity (Salmonella paratyphi [20]): inactive | Activity (Candida parapsilosis): inactive | Activity (Micrococcus luteus [21]): inactive | Activity (Klebsiella aerogenes [22]): inactive | Activity (Candida tropicalis): inactive | Activity (Proteus vulgaris [23]): inactive

Reference: ChEMBL document CHEMBL3046898, “Synthesis and characterization of flurbiprofen hydrazide derivatives as potential anti-HCV, anticancer and antimicrobial agents” (2013)
